Test results from US20220370416A1, “COMPOUNDS AND METHODS FOR TARGETED DEGRADATION OF KRAS” (Arvinas Operations, Inc., priority 2020, published 2022).

Columns and labels:
pErk [1] = assay: Erk signaling (pErk) during a 24 hour treatment in SW1573 cells; assay type: cell-based; settings: 24 hour treatment time course (FIG. 11)
pErk [2] = settings: MIA PaCa-2, 2.5 μM LC-2, 6 and 24 hours
KRAS^G12C = KRAS^G12C (Homo sapiens, UniProt P01116, G12C); assay: KRAS^G12C degradation by immunoblot in NCI-H23 cells; assay type: cell-based; design: MRTX849-VHL bifunctional compounds engage and degrade endogenous KRAS^G12C in NCI-H2030 cells; endogenous in cells; host or cells: NCI-H2030, NCI-H358, MIA PaCa-2, SW1573, NCI-H23
Method: NCI-H2030 (CRL-5914), MIA PaCa-2 (CRL-1420), NCI-H23 (CRL-5800), NCI-H358 (CRL-5807), and HCT-116 (CCL-247) cells were obtained from ATCC, expanded immediately, and frozen down. Vials were thawed and used within 20 passages. SW1573 cells were a gift from Arvinas and were handled in the same manner. NCI-H2030, NCI-H23, and NCI-H358 were cultured in RPMI (ATCC30-2001) supplemented with 10% FBS (Biological Industries; cat. no. S1480) and 1% Penicillin-Streptomycin (ThermoFisher; cat. no. 15140122). HCT-116 cells were maintained in high glucose DMEM (ThermoFisher; cat. no. 11965084) supplemented as above. MIA PaCa-2 cells were cultured in high glucose DMEM supplemented with 10% FBS, 2.5% horse serum (ThermoFisher; cat. no. 26050-088; lot 2109875), and 1% Penicillin-Streptomycin. SW1573 cells were maintained in DMEM/F12 Nutrient Mix with GlutaMAX supplement (ThermoFisher; cat. no. 10565018) with 10% FBS and 1% Penicillin-Streptomycin added. DPBS (ThermoFisher; cat. no. 14190250) was used to wash cells and 0.25% Trypsin-EDTA (ThermoFisher; cat. no. […]) was used to detach cells for passaging. […] The VHL ligand was generously provided by Arvinas.
Between 2.5×10^5 and 6.0×10^5 cells were seeded into 6-well plates (Corning; cat. no. 353046). The next day, media was removed and cells were treated with 2.5 μM LC-2 for 1, 2, 4, 8, 12, or 24 hours. […] For 24-hour time course experiments, cells were treated at the indicated times and concurrently lysed in RIPA buffer supplemented as described previously. For longer time course experiments and time courses in which cells were treated with LC-2 or LC-2 Epimer, cells were concurrently treated with either compound, then lysed by scraping in RIPA buffer at the indicated time points.
Between 2.5×10^5 and 5.0×10^5 cells were seeded into 6-well plates. The next day cells were pretreated with DMSO, 500 μM or 1 mM VHL ligand, 1 μM epoxomicin, 1 μM […], or 100 nM […] bafilomycin A1 for 1 hour. Media was then removed and cells were treated with DMSO, 2.5 μM LC-2 plus DMSO, 2.5 μM LC-2 Epimer plus DMSO, or co-treated with 2.5 μM LC-2 and the corresponding competitor/inhibitor. H2030 cells were treated for 4 hours and H23 cells were treated for 24 hours, after which cells were lysed by scraping in RIPA buffer supplemented as described previously.
Cell lysates were clarified at 21000×g for 15 mins at 4° C. Protein levels were quantified using a 50:1 mixture of bicinchoninic acid solution (Millipore Sigma; cat. no. B9643) and 4% (w/v) copper(II) sulfate solution (Millipore Sigma; cat. no. C2284) incubated at 37° C. for 30 mins. Absorbance values at 560 nm were read on an EnVision 2101 Multilabel Reader (PerkinElmer). Proteins were separated using 26 well Criterion TGX precast 4-15% (cat. no. 5671085) or 8-16% (cat. no. 5671105) gradient midi gels. After separation, proteins were transferred to nitrocellulose or PVDF membranes at 76 V for 2 hours at 4° C. Blots were then blocked in 5% milk in tris-buffered saline with Tween-20 (TBST; 20 mM Tris, 150 mM NaCl, 0.02% Tween-20). After blocking, blots were incubated in primary antibody overnight (12-18 hours) at 4° C. or for 2 hours at room temperature with mild agitation at the manufacturer's indicated dilution in either 5% milk or 5% BSA in TBST. Blots were then washed thrice with TBST for 5 mins at room temperature. After washing, blots were incubated with 1:5,000-1:10,000 of donkey anti-rabbit (GE Life Sciences; NA934) or sheep anti-mouse (GE Life Sciences; NA931) secondary antibody diluted in 5% milk for 1 hour at room temperature with mild agitation. Blots were again washed thrice with TBST for 5 mins. Chemiluminescent signal was generated using Amersham ECL Prime Western Blotting Detection Reagant (GE Life Sciences; cat. no. RPN2232) or SuperSignal West Femto Maximum Sensitivity Substrate (ThermoFisher; cat. no. 34095). Images were obtained using a Bio-Rad ChemiDoc Imager.

## C=C(F)C(=O)N1CCN(c2nc(OC[C@@H]3CCCN3CCCOCCC(=O)N[C@H](C(=O)N3C[C@H](O)C[C@H]3C(=O)NCc3ccc(-c4scnc4C)cc3)C(C)(C)C)nc3c2CCN(c2cccc4cccc(Cl)c24)C3)C[C@@H]1CC#N [LC-2, (2S,4R)-1-((S)-2-(3-(3-((S)-2-(((7-(8-chloronaphthalen-1-yl)-4-((S)-3-(cyanomethyl)-4-(2-fluoroacryloyl)piperazin-1-yl)-5,6,7,8-tetrahydropyrido[3,4-d]pyrimidin-2-yl)oxy)methyl)pyrrolidin-1-yl)propoxy)propanamido)-3,3-dimethylbutanoyl)-4-hydroxy-N-(4-(4-methylthiazol-5-yl)benzyl)pyrrolidine-2-carboxamide]
pErk [1]
  pErk (Erk signaling): pErk is decreased throughout the time course
pErk [2]
  pErk: suppressed
KRAS^G12C; NCI-H23
  Dmax: > 90%
KRAS^G12C; NCI-H23, 0.25 μM, FIG. 9B
  KRAS, two-way ANOVA significance vs DMSO: * (* p < 0.05)
KRAS^G12C; NCI-H23, 2.5 μM
  duration of KRAS degradation: sustained up to 72 hours
  time at which KRAS^G12C began to rebound: 72 h
KRAS^G12C; NCI-H23, 2.5 μM, 6, 24, 48, 72 hours
  time to maximal KRAS degradation: ≤ 24 h
KRAS^G12C; NCI-H23, 2.5 μM, 6 hours, FIG. 10B
  KRAS, two-way ANOVA significance vs DMSO: ** (** p < 0.01)
KRAS^G12C; NCI-H23, 2.5 μM, 24 hours, FIG. 10B
  KRAS, two-way ANOVA significance vs DMSO: **** (**** p < 0.001)
KRAS^G12C; NCI-H23, 10 μM, FIG. 9B
  KRAS, two-way ANOVA significance vs DMSO: N.S.
KRAS^G12C; NCI-H23, heterozygous KRAS^G12C
  DC50: 250 ± 80 nM
KRAS^G12C; NCI-H23 cells, heterozygous
  KRAS degradation: > 50%
